Experimental data: patent US20110190389A1, “OXYLIPINS FROM LONG CHAIN POLYUNSATURATED FATTY ACIDS AND METHODS OF MAKING AND USING THE SAME” (priority 2007, published 2011)

Legend:
[1] = system: total cell migration into air pouch exudates; test: Mouse dorsal air pouch model: total cell migration into exudates; assay type: in vivo, C57/B16 mice; settings: 100 ng docosanoid intra-pouch; for total number of cells in the pouch: 100 ng TNFα, 4 hours
From the text: (§1) Pure 17R-hydroxy DHA (17R-HDHA) was purchased from Caymen Chemicals (Ann Arbor, Mich.). Docosanoids 17-hydroxy-DPAn-6 (17-HDPAn-6) and 10,17-dihydroxyDPAn-6 (10,17-HDPAn-6) were synthesized biogenically from DPAn-6 (NuChek Prep, Elysian, Minn.) using soybean 15-lipoxygenase (Sigma-Aldrich) and purified by HPLC as described in Example 2. Organic solvents were evaporated and the compounds were re-dissolved in phosphate buffered saline (PBS), filter sterilized and concentrations were adjusted to 1000 ng/ml using molar extinction coefficients of 28,000 and 40,000 M^−1 cm^−1 for the mono- and dihydroxy docosanoids, respectively. Female C57/B16 mice (n=10 mice per group) were injected with sterile air subcutaneously in the back to initiate dorsal air pouches. Six days later, 0.9 ml sterile PBS followed by 100 ng docosanoid in 0.1 ml PBS or PBS alone were administered by intra-pouch injection. This injection was followed within 5 min by intra-pouch injection of 100 ng of mouse recombinant TNFα (Peprotech, Inc, NJ, USA) in 0.1 ml PBS. Control animals received no TNFα. As a positive control, 2 mg/kg indomethacin (Calbiochem, San Diego, Calif.) was administered intraperitoneally 30 min prior to administration of TNFα. Four hours after TNFα administration, air pouch exudates were removed and cells were stained with Turk's solution and counted. Exudates were frozen for later cytokine analyses using commercial ELISA kits. Bars represent group (n=10) means (±stdev). Groups were compared using Student's t test, with p values indicated.

[2] = system: IL-1β; test: Mouse dorsal air pouch model: IL-1β in exudates; assay type: in vivo, C57/B16 mice; settings: 100 ng docosanoid intra-pouch; for secretion of IL-1β in air pouch exudates: 100 ng TNFα, 4 hours
From the text: as §1

[3] = system: macrophage chemotactic protein-1 (MCP-1); test: Mouse dorsal air pouch model: MCP-1 in exudates; assay type: in vivo, C57/B16 mice; settings: 100 ng docosanoid intra-pouch; for secretion of MCP-1 in air pouch exudates: 100 ng TNFα, 4 hours; for inhibition of MCP-1 secretion versus indomethacin: indomethacin 2 mg/kg i.p.
From the text: as §1

[4] = system: human T lymphocytes; test: TNFα secretion by human T lymphocytes stimulated with anti-CD3/anti-CD28 antibodies; assay type: cell-based; settings: 6 hrs pretreatment, 41 hrs on anti-CD3/anti-CD28; difference p=0.037 at 10 nM
Protocol: FIG. 22A: Effect of Docosanoids on TNFα Secretion by Human T Lymphocytes. The assay was performed essentially as described in Ariel et al, 2005. Briefly, human peripheral blood mononuclear cells were isolated from venous blood by Ficoll-Paque™ Plus (Amersham biosciences) gradient. T lymphocytes were isolated using a human T cell enrichment column (R&D Systems) per manufacturer's instructions. Purified T cells were treated with 10,17-dihydroxy DPAn-6 or 10,17-dihydroxy DHA or vehicle (0.05% ethanol) in RPMI-1640 media containing 10% heat inactivated fetal bovine serum for 6 hrs at 37° C. Lymphocytes (200,000 cells in 200 μl media per well) were then transferred to 96-well plates coated with both anti-CD3 antibody and anti-CD28 antibody (100 μl of 2 μg/ml of each antibody overnight to coat wells) and incubated for 41 hrs. TNFα concentrations were determined in cell supernatants by ELISA (R&D Systems). Group means±stdev (n=4) were compared by Student's t test. *p<0.05 and **p<0.01 compared to control; # indicates statistical difference (p=0.037) between the groups treated with 10,17-dihydroxy DPAn-6 and 10,17-dihydroxy DHA at the 10 nM concentrations.

[5] = system: hind paw edema; test: Carrageenan-induced rat paw edema after feeding LCPUFA diets; assay type: in vivo, Sprague Dawley rats; settings: diet 4 weeks, 1% carrageenan, 3 hours post-injection, Day 28
Protocol: Adult, male, Sprague Dawley rats (n=10/treatment group) were fed modified AlN-76 diets formulated to include 1.2% DHA, 1.2% DHA+0.44% DPAn-6, or 1.2% DHA+0.46% arachidonic acid (ARA) for 4 weeks. Carrageenan (1%) was used to induce hind paw edema on Day 14 (left paw) and Day 28 (right paw) of feeding. Edema was measured plethysmographically using water displacement 3 hours post-injection. Similar results were obtained on day 14. *p≦0.05.

[6] = system: inflammatory cytokine production; test: Consumption of LCPUFA oils: inflammatory cytokine and eicosanoid production; assay type: in vivo; settings: consumption of the oil; DHA dose approximately three times higher in DHA-alone oil
[7] = molecular target: T1, Soybean 15-lipoxygenase (Glycine max, UniProt P08170); test: 15-lipoxygenase reaction with fatty acid substrates (conversion to conjugated diene); assay type: biochemical; settings: 100 μM fatty acid, 4 μg/ml enzyme, 0.05 M sodium borate pH 9.0, 0° C, absorbance 238 nm
T1 construct: purchased Sigma-Aldrich
T1 sequence (P08170 1-839): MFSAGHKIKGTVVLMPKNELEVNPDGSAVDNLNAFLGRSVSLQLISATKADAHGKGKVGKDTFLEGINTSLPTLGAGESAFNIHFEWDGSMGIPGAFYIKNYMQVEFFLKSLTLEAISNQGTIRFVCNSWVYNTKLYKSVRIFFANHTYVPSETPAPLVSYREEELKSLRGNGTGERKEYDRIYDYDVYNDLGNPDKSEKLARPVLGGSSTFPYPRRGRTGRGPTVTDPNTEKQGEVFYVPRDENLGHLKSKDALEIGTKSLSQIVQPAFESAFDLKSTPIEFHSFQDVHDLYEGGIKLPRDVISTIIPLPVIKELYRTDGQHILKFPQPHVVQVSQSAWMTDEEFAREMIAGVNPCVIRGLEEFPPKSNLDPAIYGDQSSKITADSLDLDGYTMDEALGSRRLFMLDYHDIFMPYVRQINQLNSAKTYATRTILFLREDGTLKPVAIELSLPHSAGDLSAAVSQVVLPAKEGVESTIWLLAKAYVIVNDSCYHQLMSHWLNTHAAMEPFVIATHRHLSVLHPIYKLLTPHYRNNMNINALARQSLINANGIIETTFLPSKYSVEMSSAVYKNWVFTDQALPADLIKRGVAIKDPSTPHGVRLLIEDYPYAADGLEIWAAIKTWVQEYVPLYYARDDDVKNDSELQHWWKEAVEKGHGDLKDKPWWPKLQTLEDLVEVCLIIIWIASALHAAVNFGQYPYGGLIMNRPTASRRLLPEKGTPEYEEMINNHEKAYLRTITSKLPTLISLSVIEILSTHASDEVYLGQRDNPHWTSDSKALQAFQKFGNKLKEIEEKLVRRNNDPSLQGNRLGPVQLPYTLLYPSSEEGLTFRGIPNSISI
Protocol: Soybean 15-lipoxygenase (Sigma-Aldrich, St. Louis, Mo.) at a final concentration of 4 μg/ml was mixed into 100 μM solutions of DHA, DPAn-6, or DPAn-3 (NuChek Prep, Elysian, Minn.) in 0.05 M sodium borate buffer, pH 9.0, and the reaction mixtures were incubated at 0° C. Appearance of the mono-hydroxy conjugated diene derivatives of the fatty acids was monitored through absorbance at 238 nm. Conjugated diene products were quantified using an extinction coefficient of 28,000 M^−1 cm^−1 (Shimizu et al; Methods in Enzymology, 1990 Vol 187, 296-306). As shown in Example. 1, 100% of the DPAn-6 was efficiently converted to its conjugated diene derivative under these conditions, whereas about 85% of DPAn-3 and 50% of DHA were converted to their respective conjugated diene (mono-hydroxy) derivative by the 15-lipoxygenase. No appreciable accumulation of the dihydroxy derivatives occurred under these reaction conditions.

Compound	total number of cells in the pouch [1]	secretion of IL-1β in air pouch exudates [2]	secretion of MCP-1 in air pouch exudates [3]	inhibition of MCP-1 secretion versus indomethacin [3]	also measured
10,17-dihydroxy DPAn-6	significant reductions	significant reductions	significant reductions	larger inhibition of MCP-1 secretion than indomethacin	reduction of IL-1β versus comparators ([2]; indomethacin 2 mg/kg i.p.): significantly larger than with that produced by either the DHA oxylipin derivative or indomethacin; reducing TNFα secretion by T lymphocytes, versus DHA analog [4]: more potent than the DHA analog
CCCCCC(O)/C=C/C=C\C/C=C\C/C=C\C/C=C\CCC(=O)O (centres unmarked) [17-hydroxy DPAn-6]	significant reductions	significant reductions	significant reductions	larger inhibition of MCP-1 secretion than indomethacin	potency in reducing cell infiltration versus comparators ([1]; indomethacin 2 mg/kg i.p.): more potent than both 17R-hydroxy DHA and indomethacin
CCCCC/C=C\C/C=C\C/C=C\C/C=C\CCCC(=O)O [ARA, arachidonic acid]					edema volume [5]: reversed the anti-inflammatory activity of DHA
CC/C=C\C/C=C\C/C=C\C/C=C\C/C=C\C/C=C\CCC(=O)O [DHA, docosahexaenoic acid, reference compound]					reduction in inflammatory cytokine production [6]: 13-29%
CC/C=C\C/C=C\C/C=C\C/C=C\C/C=C\CCCCCC(=O)O [DPAn-3, docosapentaenoic acid (C22:5n-3)]					converted to conjugated diene (mono-hydroxy) derivative by the 15-lipoxygenase [7]: about 85%
